These results are taken from patent US20250154109A1, “SODIUM CHANNEL BLOCKING COMPOUNDS, DERIVATIVES THEREOF, AND METHODS OF THEIR USE” (LATIGO BIOTHERAPEUTICS, INC, priority 2022, published 2025).

The target of the assay is human Nav1.8 (Homo sapiens, UniProt Q9Y5Y9). The experiment in a line: SyncroPatch384PE assay (automated patch clamp). The assay is classed as cell-based. Conditions: human Nav1.8/b3 CHO cells.
The mark [1] stands for this setting: inactivated state block (P2 measurement), read-out: P2 IC50.
Where [2] appears, read: resting state block (P1 measurement), read-out: P1 IC50.

pIC50: −log10 of the molar value. Where two headings read alike, the source gives them in different places. A value given as a limit tells only on which side of the number the result lay.

human Nav1.8, sequence (Q9Y5Y9 whole entry): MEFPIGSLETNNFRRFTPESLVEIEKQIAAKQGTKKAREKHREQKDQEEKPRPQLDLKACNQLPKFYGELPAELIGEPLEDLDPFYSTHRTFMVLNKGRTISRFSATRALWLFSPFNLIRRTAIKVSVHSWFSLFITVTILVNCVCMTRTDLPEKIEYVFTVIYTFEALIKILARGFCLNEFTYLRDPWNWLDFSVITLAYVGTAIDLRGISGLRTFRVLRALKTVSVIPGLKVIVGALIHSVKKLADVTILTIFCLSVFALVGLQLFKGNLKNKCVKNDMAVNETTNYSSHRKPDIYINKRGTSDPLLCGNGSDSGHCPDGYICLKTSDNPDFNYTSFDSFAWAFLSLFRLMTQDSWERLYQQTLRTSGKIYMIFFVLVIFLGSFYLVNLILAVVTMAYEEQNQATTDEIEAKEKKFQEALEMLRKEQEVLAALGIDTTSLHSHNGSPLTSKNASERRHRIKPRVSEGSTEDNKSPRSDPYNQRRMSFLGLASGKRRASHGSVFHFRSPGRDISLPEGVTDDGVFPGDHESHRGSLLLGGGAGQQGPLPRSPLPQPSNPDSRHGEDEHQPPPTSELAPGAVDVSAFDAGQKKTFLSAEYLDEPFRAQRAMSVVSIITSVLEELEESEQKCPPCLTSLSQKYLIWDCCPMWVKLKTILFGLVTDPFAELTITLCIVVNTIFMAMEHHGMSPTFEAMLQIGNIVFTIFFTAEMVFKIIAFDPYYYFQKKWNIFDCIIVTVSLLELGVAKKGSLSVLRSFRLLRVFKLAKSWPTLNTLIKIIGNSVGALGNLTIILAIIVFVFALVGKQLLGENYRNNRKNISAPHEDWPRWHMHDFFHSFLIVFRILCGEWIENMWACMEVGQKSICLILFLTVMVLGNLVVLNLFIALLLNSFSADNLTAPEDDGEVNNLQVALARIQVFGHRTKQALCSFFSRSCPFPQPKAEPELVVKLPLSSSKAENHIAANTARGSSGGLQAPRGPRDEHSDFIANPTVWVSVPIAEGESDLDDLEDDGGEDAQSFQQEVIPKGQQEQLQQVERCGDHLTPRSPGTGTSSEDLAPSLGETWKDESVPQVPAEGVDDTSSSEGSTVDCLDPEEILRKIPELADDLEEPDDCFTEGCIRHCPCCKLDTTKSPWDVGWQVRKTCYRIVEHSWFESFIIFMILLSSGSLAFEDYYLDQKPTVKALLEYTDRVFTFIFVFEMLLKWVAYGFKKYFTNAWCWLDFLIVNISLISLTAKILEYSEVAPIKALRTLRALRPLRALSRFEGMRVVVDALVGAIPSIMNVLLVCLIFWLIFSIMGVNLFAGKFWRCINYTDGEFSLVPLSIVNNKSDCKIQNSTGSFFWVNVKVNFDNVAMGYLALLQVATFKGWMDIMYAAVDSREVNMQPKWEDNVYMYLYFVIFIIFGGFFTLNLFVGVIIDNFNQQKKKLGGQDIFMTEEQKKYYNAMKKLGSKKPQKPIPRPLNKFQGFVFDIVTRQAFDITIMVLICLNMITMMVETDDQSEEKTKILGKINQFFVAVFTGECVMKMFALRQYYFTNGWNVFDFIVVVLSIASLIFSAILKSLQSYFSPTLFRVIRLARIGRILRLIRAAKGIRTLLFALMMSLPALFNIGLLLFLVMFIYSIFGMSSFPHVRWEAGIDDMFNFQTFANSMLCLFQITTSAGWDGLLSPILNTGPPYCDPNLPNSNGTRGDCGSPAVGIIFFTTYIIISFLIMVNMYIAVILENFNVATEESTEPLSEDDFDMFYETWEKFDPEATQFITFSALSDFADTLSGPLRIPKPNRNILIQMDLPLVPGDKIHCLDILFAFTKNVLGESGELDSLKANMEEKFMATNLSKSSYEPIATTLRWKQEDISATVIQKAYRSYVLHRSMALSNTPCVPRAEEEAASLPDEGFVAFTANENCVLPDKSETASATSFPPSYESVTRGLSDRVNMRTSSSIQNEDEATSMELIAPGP

As to `Cc1c(-c2cnn(C(C)C)c2)cnc(N2CCCC(F)(F)CC2)c1C(=O)Nc1cccc([S@](C)(=N)=O)c1` [Example 160, (R)-2-(4,4-difluoroazepan-1-yl)-5-(1-isopropyl-1H-pyrazol-4-yl)-4-methyl-N-(3-(S-methylsulfonimidoyl)phenyl)nicotinamide], the pIC50 – broadly, the negative decadic logarithm of the IC50, by convention in mol/L – reads like this: under setting [1], 7.30 to 8.30; under setting [2], 7.30 to 8.30.
For the compound `Cc1nc(N2CCC3(CC2)CC3)c(C(=O)Nc2cccc(S(C)(=N)=O)c2)cc1Cl` (centres unmarked) [Example 12, 5-chloro-6-methyl-N-(3-(S-methylsulfonimidoyl)phenyl)-2-(6-azaspiro[2.5]octan-6-yl)nicotinamide], the pIC50 is at least 8.30 under setting [1] and at least 8.30 under setting [2].
`Cc1c(C(F)(F)F)nnc(N2CCCC(F)(F)CC2)c1C(=O)Nc1ccnc(S(C)(=N)=O)c1` (centres unmarked) [Example 102, 3-(4,4-difluoroazepan-1-yl)-5-methyl-N-(2-(S-methylsulfonimidoyl)pyridin-4-yl)-6-(trifluoromethyl)pyridazine-4-carboxamide]: the pIC50 under setting [1] was 7.30 to 8.30 and the pIC50 under setting [2] is 7.30 to 8.30.
Consider `Cc1c(C(F)(F)F)nnc(N2CCC3(CC2)CC3)c1C(=O)Nc1cccc(S(C)(=N)=O)c1` (centres unmarked) [Example 94, 5-methyl-N-(3-(S-methylsulfonimidoyl)phenyl)-3-(6-azaspiro[2.5]octan-6-yl)-6-(trifluoromethyl)pyridazine-4-carboxamide], for which the pIC50 by setting is: under setting [1], below 6.70; under setting [2], below 6.70.
Consider `Cc1nc(N2CCC3(CC2)CC3)c(C(=O)Nc2cccc([S@](C)(=N)=O)c2)cc1Cl` [Example 26, (R)-5-Chloro-6-methyl-N-(3-(S-methylsulfonimidoyl)phenyl)-2-(6-azaspiro[2.5]octan-6-yl)nicotinamide], for which the pIC50 is at least 8.30 under setting [1] and at least 8.30 under setting [2].
Turning to `Cc1ccc(-c2cnc(N3CCCC(F)(F)CC3)c(C(=O)Nc3cccc(S(C)(=N)=O)c3)c2C)cc1` (centres unmarked) [Example 96, 2-(4,4-difluoroazepan-1-yl)-4-methyl-N-(3-(S-methylsulfonimidoyl)phenyl)-5-(p-tolyl)nicotinamide], the pIC50 by setting is: under setting [1], at least 8.30; under setting [2], at least 8.30.
In the case of `C[S@@](=N)(=O)c1cccc(NC(=O)c2c(N3CCCC(F)(F)CC3)cnc(C(F)(F)F)c2Cl)c1` [Example 208, (R)-3-chloro-5-(4,4-difluoroazepan-1-yl)-N-(3-(S-methylsulfonimidoyl)phenyl)-2-(trifluoromethyl)isonicotinamide], the pIC50 is, setting by setting: under setting [1], 7.30 to 8.30; under setting [2], 7.30 to 8.30.
On to `Cc1c(-c2ccccc2)cnc(N2CCCC(F)(F)CC2)c1C(=O)Nc1cccc([S@@](C)(=N)=O)c1` [Example 103, (S)-2-(4,4-difluoroazepan-1-yl)-4-methyl-N-(3-(S-methylsulfonimidoyl)phenyl)-5-phenylnicotinamide], for which the pIC50 was at least 8.30 under setting [1] and at least 8.30 under setting [2].
As for `Cc1c(C(=O)Nc2cccc([S@@](C)(=O)=NC(=O)[C@@H]3CCCN3)c2)c(N2CCCC(F)(F)CC2)nc(C(F)(F)F)c1-c1cnn(C)c1` [Example 190, N-(3-((R)-N-(L-prolyl)-S-methylsulfonimidoyl)phenyl)-2-(4,4-difluoroazepan-1-yl)-4-methyl-5-(1-methyl-1H-pyrazol-4-yl)-6-(trifluoromethyl)nicotinamide], the pIC50 is at least 8.30 under setting [1] and at least 8.30 under setting [2].
As for `Cc1c(N2CC3(COC3)C2)cnc(N2CCCC(F)(F)CC2)c1C(=O)Nc1cccc([S@](C)(=N)=O)c1` [Example 116, (R)-2-(4,4-difluoroazepan-1-yl)-4-methyl-N-(3-(S-methylsulfonimidoyl)phenyl)-5-(2-oxa-6-azaspiro[3.3]heptan-6-yl)nicotinamide], the pIC50 reads like this: under setting [1], below 6.70; under setting [2], below 6.70.
Regarding `CNCC(=O)N=[S@](C)(=O)c1cccc(NC(=O)c2c(N3CCCC(F)(F)CC3)ncc(-c3cnn(C)c3)c2C)c1` [Example 46, (R)-2-(4,4-difluoroazepan-1-yl)-4-methyl-5-(1-methyl-1H-pyrazol-4-yl)-N-(3-(S-methyl-N-(methylglycyl)sulfonimidoyl)phenyl)nicotinamide], the pIC50 runs as follows: under setting [1], 7.30 to 8.30; under setting [2], 7.30 to 8.30.
Turning to `CNCC(=O)N=[S@](C)(=O)c1cccc(NC(=O)c2c(N3CCCC(F)(F)CC3)nc(C(F)(F)F)c(C#N)c2C)c1` [Example 65, (R)-5-cyano-2-(4,4-difluoroazepan-1-yl)-4-methyl-N-(3-(S-methyl-N-(methylglycyl)sulfonimidoyl)phenyl)-6-(trifluoromethyl)nicotinamide], the pIC50 is, setting by setting: under setting [1], at least 8.30; under setting [2], at least 8.30.
`Cc1c(-c2ccc3c(c2)OCCO3)cnc(N2CCCC(F)(F)CC2)c1C(=O)Nc1cccc([S@](C)(=N)=O)c1` [Example 47, (R)-2-(4,4-difluoroazepan-1-yl)-5-(2,3-dihydrobenzo[b][1,4]dioxin-6-yl)-4-methyl-N-(3-(S-methylsulfonimidoyl)phenyl)nicotinamide]: the pIC50 was 7.30 to 8.30 under setting [1] and 7.30 to 8.30 under setting [2].
`C[S@@](=N)(=O)c1cccc(NC(=O)c2cc(Cl)c(C(F)(F)F)cc2N2CCO[C@H](C(F)(F)F)C2)c1` [Example 215, 5-chloro-N-(3-((R)—S-methylsulfonimidoyl)phenyl)-4-(trifluoromethyl)-2-((S)-2-(trifluoromethyl)morpholino)benzamide]: the negative-log IC50 (pIC50) under setting [1] was 7.30 to 8.30 and the pIC50 under setting [2] was 7.30 to 8.30.
Take `C[S@@](=N)(=O)c1cccc(NC(=O)c2cc(Cl)c(C(F)(F)F)cc2N2CCC(C(F)(F)F)CC2)c1` [Example 219, (R)-5-chloro-N-(3-(S-methylsulfonimidoyl)phenyl)-4-(trifluoromethyl)-2-(4-(trifluoromethyl)piperidin-1-yl)benzamide]: the pIC50 is at least 8.30 under setting [1] and at least 8.30 under setting [2].
Turning to `C[S@@+]([O-])c1cc(NC(=O)c2cc(Cl)c(C(F)(F)F)cc2N2CCCC(F)(F)CC2)ccc1F` [Example 206, (R)-5-chloro-2-(4,4-difluoroazepan-1-yl)-N-(4-fluoro-3-(methylsulfinyl)phenyl)-4-(trifluoromethyl)benzamide], the pIC50 by setting is: under setting [1], at least 8.30; under setting [2], at least 8.30.
Turning to `Cc1c(Cl)c(-c2cnn(C)c2)nc(N2CCCC(F)(F)CC2)c1C(=O)Nc1cccc([S@](C)(=N)=O)c1` [Example 162, (R)-5-chloro-2-(4,4-difluoroazepan-1-yl)-4-methyl-6-(1-methyl-1H-pyrazol-4-yl)-N-(3-(S-methylsulfonimidoyl)phenyl)nicotinamide], the pIC50 by setting is: under setting [1], at least 8.30; under setting [2], at least 8.30.
As to `Cc1c(C(F)(F)F)cnc(N2CCCC(F)(F)CC2)c1C(=O)Nc1ccnc([S@](C)(=N)=O)c1` (single isomer, unassigned) [Example 189], the pIC50 by setting is: under setting [1], at least 8.30; under setting [2], at least 8.30.
As to `Cc1nc(N2CCOCC2)nc(N2CCCC(F)(F)CC2)c1C(=O)Nc1cccc([S@](C)(=N)=O)c1` [Example 155, (R)-4-(4,4-difluoroazepan-1-yl)-6-methyl-N-(3-(S-methylsulfonimidoyl)phenyl)-2-morpholinopyrimidine-5-carboxamide], the pIC50 under setting [1] was below 6.70 and the pIC50 under setting [2] is below 6.70.
